Columns and labels:
[1] = test system: TP3-T6 (DNA, G4) TGGGGTCCGAGGCGGGGCTTGGG; assay: CD melting at 285 nm; conditions: 70 mM KCl, 20 mM phosphate, pH 7.1, 2 µM DNA, 6 µM ligand
[2] = test system: TP3-T6 (DNA, G4) TGGGGTCCGAGGCGGGGCTTGGG; assay: 1H NMR imino proton titration; conditions: 70 mM KCl, 20 mM KH2PO4, pH 7.0, 25 °C, H2O/D2O 9:1, DMSO <7%
[3] = test system: TP3-T6 (DNA, G4) TGGGGTCCGAGGCGGGGCTTGGG; assay: ligand fluorescence titration, EQUISPEC multivariate fit; conditions: 70 mM KCl, 20 mM potassium phosphate; 20 mM phosphate buffer, pH 7.1, 20 °C, 3 µM ligand

Row | Compound | ΔTm ([1]; derived from two Tm (58.8 ± 1.3, 59.6 ± 0.8)) [°C] | binding ([2]; R up to 2.0, 5'-end tetrad slightly shifted) | Kb [3] | ΔTm ([1]; derived from two Tm (60.3 ± 1.3, 59.6 ± 0.8)) [°C] | binding ([2]; R up to 2.0, 3'-end tetrad) | ΔTm ([1]; derived from two Tm (60.2 ± 1.0, 59.6 ± 0.8)) [°C] | binding ([2]; up to R = 2.0, DNA 0.24–0.48 mM)
1 | C[C@]1(c2nc3c(C(N)=O)cccc3[nH]2)CCCN1 | -0.8 | weak | 5.48 ± 0.16 × 10^5 M^-1 |  |  |  | 
2 | NC(=O)c1cccc2cn(-c3ccc([C@@H]4CCCNC4)cc3)nc12 |  |  | 5.24 ± 0.20 × 10^5 M^-1 | 0.7 | yes |  | 
3 | NC(=O)n1ccc2ccc(-c3ccc(CN4CCCCC4)cc3)nc21 |  |  | 5.45 ± 0.15 × 10^5 M^-1 |  | yes | 0.6 | 
4 | O=C(c1cc(Cc2n[nH]c(=O)c3ccccc23)ccc1F)N1CCN(C(=O)C2CC2)CC1 |  |  |  |  |  |  | no
